Source: ChEMBL document CHEMBL1201862, “PubChem BioAssay data set” (2004)
Active and inactive are the calls of the source.

Experiments:
[1] = target: cAMP-dependent protein kinase catalytic subunit alpha (Homo sapiens, UniProt P17612); format: functional
[2] = target: Aurora kinase A (Homo sapiens, UniProt O14965); format: functional;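 note: value from the Navigating the Kinome kinase panel profiling, panel entry STK6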
[3] = target: Ribosomal protein S6 kinase alpha-3 (Homo sapiens, UniProt P51812); format: functional;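 note: measured within a kinome-wide profiling panel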
Chain of Ribosomal protein S6 kinase alpha-3 (P51812 whole entry): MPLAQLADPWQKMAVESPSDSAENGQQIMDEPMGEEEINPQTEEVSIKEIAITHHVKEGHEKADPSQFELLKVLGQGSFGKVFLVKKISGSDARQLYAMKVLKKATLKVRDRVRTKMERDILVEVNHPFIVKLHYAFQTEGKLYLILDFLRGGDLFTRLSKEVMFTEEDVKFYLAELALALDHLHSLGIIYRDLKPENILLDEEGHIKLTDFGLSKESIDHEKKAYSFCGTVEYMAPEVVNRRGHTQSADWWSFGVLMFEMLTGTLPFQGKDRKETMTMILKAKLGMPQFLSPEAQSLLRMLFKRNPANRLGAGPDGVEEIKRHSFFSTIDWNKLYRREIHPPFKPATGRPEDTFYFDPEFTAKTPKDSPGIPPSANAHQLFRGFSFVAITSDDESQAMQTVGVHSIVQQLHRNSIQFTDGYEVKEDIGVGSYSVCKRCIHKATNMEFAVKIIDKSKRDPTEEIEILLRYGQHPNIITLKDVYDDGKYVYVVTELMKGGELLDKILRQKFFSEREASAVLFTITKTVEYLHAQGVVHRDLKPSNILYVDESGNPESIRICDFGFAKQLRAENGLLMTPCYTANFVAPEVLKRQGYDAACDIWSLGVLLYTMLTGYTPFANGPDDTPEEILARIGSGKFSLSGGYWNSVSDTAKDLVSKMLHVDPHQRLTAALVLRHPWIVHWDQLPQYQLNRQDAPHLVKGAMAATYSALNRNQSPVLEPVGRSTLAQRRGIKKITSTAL

[4] = target: MAP/microtubule affinity-regulating kinase 3 (Homo sapiens, UniProt P27448); format: functional;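 note: MARK3 affinity measured as one member of a kinome panel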
[5] = target: Serine/threonine-protein kinase Chk2 (Homo sapiens, UniProt O96017); format: functional;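 note: CHEK2 entry within a kinome-wide screening panel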
[6] = target: Serine/threonine-protein kinase Chk1 (Homo sapiens, UniProt O14757); format: functional;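 note: measured as one member of a kinome-wide kinase profiling panel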
[7] = target: Protein kinase C delta type (Homo sapiens, UniProt Q05655); format: functional
[8] = target: Melanin-concentrating hormone receptor 1 (Homo sapiens, UniProt Q99705); assay: Late-stage fluorescence-based counterscreen for antagonists of the G-protein coupled receptor 7 (GPR7): cell-based dose response assay to identify antagonists of the melanin-concentrating hormone receptor 1 (MCHR1) Set 6.; format: functional
[9] = target: T1, Neuropeptides B/W receptor type 1 (Homo sapiens, UniProt P48145); assay: GPR7 antagonist potency, late-stage follow-up, cell-based, fluorescence, dose response, set 6 (AID 588583); format: functional
T1 sequence (P48145 whole entry): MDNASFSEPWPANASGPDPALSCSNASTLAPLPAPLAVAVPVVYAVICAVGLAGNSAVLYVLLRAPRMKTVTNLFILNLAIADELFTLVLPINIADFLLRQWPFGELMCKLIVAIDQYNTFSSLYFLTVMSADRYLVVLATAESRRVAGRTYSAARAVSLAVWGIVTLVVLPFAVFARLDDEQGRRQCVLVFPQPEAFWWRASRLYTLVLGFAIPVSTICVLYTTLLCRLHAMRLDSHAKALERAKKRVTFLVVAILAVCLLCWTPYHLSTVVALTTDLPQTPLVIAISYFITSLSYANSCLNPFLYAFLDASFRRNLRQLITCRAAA

[10] = target: Mitogen-activated protein kinase 13 (Homo sapiens, UniProt O15264); format: functional
[11] = target: LIM domain kinase 1 (Homo sapiens, UniProt P53667); assay: Navigating the Kinome. Panel member name: LIMK1; format: functional
[12] = target: Mitogen-activated protein kinase 9 (Homo sapiens, UniProt P45984); format: functional;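 note: value from a kinome panel profiling assay, MAPK9 panel entry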
[13] = target: High affinity nerve growth factor receptor (Homo sapiens, UniProt P04629); format: functional;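 note: NTRK1 tested as one member of a kinome-wide profiling panel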
[14] = target: Focal adhesion kinase 1 (Homo sapiens, UniProt Q05397); format: functional;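 note: measured as one member of a kinome panel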
Chain of Focal adhesion kinase 1 (Q05397 whole entry): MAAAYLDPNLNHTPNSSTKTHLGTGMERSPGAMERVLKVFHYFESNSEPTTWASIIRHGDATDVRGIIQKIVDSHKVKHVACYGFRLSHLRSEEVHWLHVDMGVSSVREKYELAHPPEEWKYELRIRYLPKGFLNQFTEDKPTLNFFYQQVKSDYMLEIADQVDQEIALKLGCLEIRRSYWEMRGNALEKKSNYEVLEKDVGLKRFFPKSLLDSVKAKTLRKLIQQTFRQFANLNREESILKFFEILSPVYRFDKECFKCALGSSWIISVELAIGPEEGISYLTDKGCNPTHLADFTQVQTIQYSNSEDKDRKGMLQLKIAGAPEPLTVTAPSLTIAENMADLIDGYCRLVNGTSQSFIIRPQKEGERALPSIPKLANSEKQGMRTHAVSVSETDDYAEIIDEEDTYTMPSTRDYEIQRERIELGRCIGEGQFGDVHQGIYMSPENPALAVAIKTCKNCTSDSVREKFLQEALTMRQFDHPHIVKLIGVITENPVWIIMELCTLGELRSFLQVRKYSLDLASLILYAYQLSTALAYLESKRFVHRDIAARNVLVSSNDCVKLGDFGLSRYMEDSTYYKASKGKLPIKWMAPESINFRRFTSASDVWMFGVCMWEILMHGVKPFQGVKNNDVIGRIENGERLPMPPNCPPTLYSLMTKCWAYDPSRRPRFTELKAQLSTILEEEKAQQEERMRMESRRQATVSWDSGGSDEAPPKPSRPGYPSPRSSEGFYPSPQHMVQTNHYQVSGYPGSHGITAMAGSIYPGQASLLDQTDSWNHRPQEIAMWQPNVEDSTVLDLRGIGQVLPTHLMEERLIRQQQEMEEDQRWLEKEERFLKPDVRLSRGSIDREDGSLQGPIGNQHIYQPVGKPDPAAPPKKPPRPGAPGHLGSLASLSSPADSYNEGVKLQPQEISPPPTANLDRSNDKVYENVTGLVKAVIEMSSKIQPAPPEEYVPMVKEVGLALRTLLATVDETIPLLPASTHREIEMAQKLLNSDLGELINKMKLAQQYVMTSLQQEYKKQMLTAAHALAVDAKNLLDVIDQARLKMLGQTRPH

[15] = target: Platelet-derived growth factor receptor alpha (Homo sapiens, UniProt P16234); assay: Navigating the Kinome. Panel member name: PDGFRA; format: functional
[16] = target: Activin receptor type-1 (Homo sapiens, UniProt Q04771); assay: Navigating the Kinome. Panel member name: ACVR1; format: functional
[17] = target: Insulin-like growth factor 1 receptor (Homo sapiens, UniProt P08069); assay: Navigating the Kinome. Panel member name: IGF1R; format: functional
[18] = target: Fibroblast growth factor receptor 1 (Homo sapiens, UniProt P11362); format: functional
[19] = target: Leucine-rich repeat serine/threonine-protein kinase 2 (Homo sapiens, UniProt Q5S007); format: functional;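 note: value from a broad kinome-wide panel profiling study in which LRRK2 was one of the kinases tested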
[20] = target: Dual specificity protein kinase CLK2 (Homo sapiens, UniProt P49760); format: functional
[21] = target: Protein kinase C theta type (Homo sapiens, UniProt Q04759); assay: Navigating the Kinome. Panel member name: PRKCQ; format: functional
[22] = target: Tyrosine-protein kinase Fyn (Homo sapiens, UniProt P06241); format: functional
Chain of Tyrosine-protein kinase Fyn (P06241 whole entry): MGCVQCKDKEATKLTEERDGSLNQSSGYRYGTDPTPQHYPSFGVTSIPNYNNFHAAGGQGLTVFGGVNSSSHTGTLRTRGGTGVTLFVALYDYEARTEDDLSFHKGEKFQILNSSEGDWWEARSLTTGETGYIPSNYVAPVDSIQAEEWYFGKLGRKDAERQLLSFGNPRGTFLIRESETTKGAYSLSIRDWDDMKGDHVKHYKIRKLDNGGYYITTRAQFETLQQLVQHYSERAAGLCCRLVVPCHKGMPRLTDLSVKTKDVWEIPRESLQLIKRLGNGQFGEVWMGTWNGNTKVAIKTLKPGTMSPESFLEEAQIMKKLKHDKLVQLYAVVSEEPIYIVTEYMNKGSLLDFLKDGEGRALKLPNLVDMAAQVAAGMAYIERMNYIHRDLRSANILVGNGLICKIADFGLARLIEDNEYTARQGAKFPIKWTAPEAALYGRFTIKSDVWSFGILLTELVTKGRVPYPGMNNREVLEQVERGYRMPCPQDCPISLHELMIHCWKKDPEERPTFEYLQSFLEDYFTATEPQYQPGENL

[23] = target: Rho-associated protein kinase 1 (Homo sapiens, UniProt Q13464); format: functional;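 note: measured within a broad kinome-wide panel profiling many kinases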
[24] = target: Tyrosine-protein kinase Lck (Homo sapiens, UniProt P06239); format: functional;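 note: lck was assayed as one member of a kinase panel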
[25] = target: Hepatocyte growth factor receptor (Homo sapiens, UniProt P08581); format: functional;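 note: kinase panel profiling across the kinome, with MET as the panel member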
[26] = target: Tyrosine-protein kinase JAK2 (Homo sapiens, UniProt O60674); format: functional;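 note: JAK2 tested as one member of a kinase panel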
[27] = target: Casein kinase I isoform alpha (Homo sapiens, UniProt P48729); format: functional
Chain of Casein kinase I isoform alpha (P48729 whole entry, canonical isoform): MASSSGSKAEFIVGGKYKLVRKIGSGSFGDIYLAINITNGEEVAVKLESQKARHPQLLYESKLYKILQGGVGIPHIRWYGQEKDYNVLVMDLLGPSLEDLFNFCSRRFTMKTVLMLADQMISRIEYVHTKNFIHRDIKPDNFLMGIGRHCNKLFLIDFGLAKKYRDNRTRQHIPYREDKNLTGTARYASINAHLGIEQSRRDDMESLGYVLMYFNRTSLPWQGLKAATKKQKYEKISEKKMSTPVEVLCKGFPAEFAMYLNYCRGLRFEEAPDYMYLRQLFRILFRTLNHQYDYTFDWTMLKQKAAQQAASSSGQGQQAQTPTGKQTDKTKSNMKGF

[28] = target: Tyrosine-protein kinase receptor TYRO3 (Homo sapiens, UniProt Q06418); format: functional;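 note: TYRO3 value obtained as one member of a kinome-wide profiling panel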
[29] = target: Mitogen-activated protein kinase kinase kinase kinase 2 (Homo sapiens, UniProt Q12851); format: functional;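 note: measured as one member of a kinome-wide kinase panel, with MAP4K2 as the panel entry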
[30] = target: Dual specificity mitogen-activated protein kinase kinase 2 (Homo sapiens, UniProt P36507); assay: Navigating the Kinome. Panel member name: MAP2K2; format: functional
[31] = target: Serine/threonine-protein kinase D3 (Homo sapiens, UniProt O94806); format: functional;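 note: determined within a kinase panel screen, with PRKCN as the panel member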
Chain of Serine/threonine-protein kinase D3 (O94806 whole entry): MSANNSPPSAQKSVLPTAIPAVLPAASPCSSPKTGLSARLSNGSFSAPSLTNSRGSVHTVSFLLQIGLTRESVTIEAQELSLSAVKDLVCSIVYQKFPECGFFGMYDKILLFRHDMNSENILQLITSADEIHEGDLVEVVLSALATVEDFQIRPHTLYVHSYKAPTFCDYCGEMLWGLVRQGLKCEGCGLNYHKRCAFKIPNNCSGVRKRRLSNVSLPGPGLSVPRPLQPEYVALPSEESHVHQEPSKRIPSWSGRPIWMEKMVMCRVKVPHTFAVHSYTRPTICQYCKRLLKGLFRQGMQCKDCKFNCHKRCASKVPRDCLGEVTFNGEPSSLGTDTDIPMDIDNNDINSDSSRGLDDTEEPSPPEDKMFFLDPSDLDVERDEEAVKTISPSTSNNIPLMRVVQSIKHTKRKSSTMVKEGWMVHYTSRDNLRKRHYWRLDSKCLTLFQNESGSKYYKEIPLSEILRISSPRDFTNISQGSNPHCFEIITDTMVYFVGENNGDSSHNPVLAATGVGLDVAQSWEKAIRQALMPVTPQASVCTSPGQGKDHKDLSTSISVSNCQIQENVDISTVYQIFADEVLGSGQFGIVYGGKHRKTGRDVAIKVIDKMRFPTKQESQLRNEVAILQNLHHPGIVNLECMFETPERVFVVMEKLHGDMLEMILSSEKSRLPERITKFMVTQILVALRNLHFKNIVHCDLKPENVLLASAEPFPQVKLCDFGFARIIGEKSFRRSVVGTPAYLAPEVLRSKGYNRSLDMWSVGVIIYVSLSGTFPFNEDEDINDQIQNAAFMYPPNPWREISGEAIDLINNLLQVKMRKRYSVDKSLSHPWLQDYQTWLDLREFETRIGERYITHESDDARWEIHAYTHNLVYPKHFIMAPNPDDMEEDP

[32] = target: Macrophage-stimulating protein receptor (Homo sapiens, UniProt Q04912); assay: Navigating the Kinome. Panel member name: MST1R; format: functional
[33] = target: Glycogen synthase kinase-3 alpha (Homo sapiens, UniProt P49840); format: functional;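 note: GSK3A result taken from a broad kinome-wide kinase panel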
[34] = target: Leukocyte tyrosine kinase receptor (Homo sapiens, UniProt P29376); assay: Navigating the Kinome. Panel member name: LTK; format: functional
Chain of Leukocyte tyrosine kinase receptor (P29376 whole entry): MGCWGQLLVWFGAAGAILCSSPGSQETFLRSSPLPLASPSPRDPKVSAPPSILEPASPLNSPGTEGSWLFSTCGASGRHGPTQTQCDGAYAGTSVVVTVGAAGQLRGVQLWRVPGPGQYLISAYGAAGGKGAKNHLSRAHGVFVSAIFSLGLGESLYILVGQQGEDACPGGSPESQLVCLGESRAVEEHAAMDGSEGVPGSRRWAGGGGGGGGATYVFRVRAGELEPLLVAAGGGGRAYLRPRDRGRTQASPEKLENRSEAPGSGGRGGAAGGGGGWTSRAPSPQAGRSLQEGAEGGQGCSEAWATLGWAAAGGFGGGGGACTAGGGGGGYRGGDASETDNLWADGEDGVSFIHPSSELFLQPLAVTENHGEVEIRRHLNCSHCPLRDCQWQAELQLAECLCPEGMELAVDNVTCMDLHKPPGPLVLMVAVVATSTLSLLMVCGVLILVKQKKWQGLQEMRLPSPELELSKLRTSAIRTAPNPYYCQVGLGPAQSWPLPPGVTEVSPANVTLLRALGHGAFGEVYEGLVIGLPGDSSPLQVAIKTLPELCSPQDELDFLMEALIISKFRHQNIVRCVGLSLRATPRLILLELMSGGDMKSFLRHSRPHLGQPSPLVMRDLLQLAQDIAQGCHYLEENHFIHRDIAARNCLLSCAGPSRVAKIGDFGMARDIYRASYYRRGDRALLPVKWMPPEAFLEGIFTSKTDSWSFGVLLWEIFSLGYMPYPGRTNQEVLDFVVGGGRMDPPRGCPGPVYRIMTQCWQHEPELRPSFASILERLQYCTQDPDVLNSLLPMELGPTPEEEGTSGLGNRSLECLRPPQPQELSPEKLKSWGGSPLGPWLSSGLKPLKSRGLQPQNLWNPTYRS

[35] = target: Cyclin-dependent kinase 5 (Homo sapiens, UniProt Q00535); format: functional;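 note: CDK5 measured as one member of a kinase profiling panel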
Chain of Cyclin-dependent kinase 5 (Q00535 whole entry): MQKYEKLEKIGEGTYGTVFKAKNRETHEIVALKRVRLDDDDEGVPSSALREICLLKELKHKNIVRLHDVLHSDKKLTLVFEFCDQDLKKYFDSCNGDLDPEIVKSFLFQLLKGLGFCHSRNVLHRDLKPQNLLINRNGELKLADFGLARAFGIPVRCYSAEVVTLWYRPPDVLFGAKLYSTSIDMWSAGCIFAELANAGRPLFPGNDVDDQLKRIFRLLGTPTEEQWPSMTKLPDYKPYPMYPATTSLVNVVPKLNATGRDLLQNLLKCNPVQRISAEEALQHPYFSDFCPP

[36] = target: Vascular endothelial growth factor receptor 1 (Homo sapiens, UniProt P17948); format: functional;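 note: measured within a kinome-wide profiling panel, FLT1 as the panel member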
[37] = THP-1 cell cytotoxicity, cytotoxicity control, set 4 (AID 504911); format: functional; conditions: Mycobacterium tuberculosis
[38] = Vero cell cytotoxicity, cytotoxicity control for M. tuberculosis inhibitor project, purified and synthesized samples, set 3 (AID 504684); format: functional
[39] = A Cell Based Secondary Assay to Explore Cytotoxicity in HepG2 Cells of Compounds that Modulate Mycobacterium tuberculosis in Media Containing Glycerol versus Media without Glycerol (2).; format: functional
[40] = A Cell Based Secondary Assay to Explore Cytotoxicity in THP-1 Cells of Compounds that Modulate Mycobacterium tuberculosis in Media Containing Glycerol versus Media without Glycerol (2).; format: functional
[41] = microbe, parasite or virus in culture; format: functional; conditions: Mycobacterium tuberculosis
[42] = Vero cell cytotoxicity, dose response, cytotoxicity control for M. tuberculosis growth inhibitor project, Vero cells, purified and synthesized compounds, set 4 (AID 504854); format: functional; conditions: Mycobacterium tuberculosis
[43] = target: CAAX prenyl protease 1 (Saccharomyces cerevisiae S288c, UniProt P47154); assay: Ste24 protease inhibitors, dose response, biochemical, S. cerevisiae, plate reader, cherry-pick (AID 488815)
[44] = Vero cell cytotoxicity, dose response, cytotoxicity control for M. tuberculosis growth inhibitor project, Vero cells, purified and synthesized compounds, set 5 (AID 504909); format: functional; conditions: Mycobacterium tuberculosis
[45] = HepG2 cell cytotoxicity, dose response, cytotoxicity control, set 3 (AID 504853); format: functional; conditions: Mycobacterium tuberculosis
[46] = THP-1 cell cytotoxicity, dose response, cytotoxicity control, set 3 (AID 504852); format: functional; conditions: Mycobacterium tuberculosis
[47] = target: T2, CAAX prenyl protease 2 (Homo sapiens, UniProt Q9Y256); assay: human Rce1 protease inhibitors, dose response, biochemical, yeast membranes, quenched-peptide fluorescence, cherry-pick (AID 588849)
T2 sequence (Q9Y256 whole entry): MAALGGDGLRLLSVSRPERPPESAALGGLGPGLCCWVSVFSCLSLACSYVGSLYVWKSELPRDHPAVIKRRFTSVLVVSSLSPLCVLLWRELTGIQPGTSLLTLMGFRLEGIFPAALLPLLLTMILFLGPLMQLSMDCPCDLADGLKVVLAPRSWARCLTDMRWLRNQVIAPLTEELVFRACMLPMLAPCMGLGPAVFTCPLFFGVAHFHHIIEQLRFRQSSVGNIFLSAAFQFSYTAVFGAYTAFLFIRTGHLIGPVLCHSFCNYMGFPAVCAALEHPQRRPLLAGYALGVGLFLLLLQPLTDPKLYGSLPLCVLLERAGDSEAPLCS

CN(C)c1ncnc2nc[nH]c12 [DIMETHYLADENINE]
Ki [1]: 15.8 µM (active) | Ki [2]: 3.98 µM (active) | Ki [3]: 5.01 µM (active) | Ki [4]: 5.01 µM (active) | Ki [5]: 3.98 µM (active) | Ki [6]: 12.6 µM (active) | Ki [7]: 12.6 µM (active)

N#Cc1cccc(C(C#N)c2c(Br)cnn(Cc3cccc4ccccc34)c2=O)c1 (configuration not stated)
IC50 [8]: ~0.693 µM (active) | IC50 [9]: ~0.693 µM (active)

O=C(Nc1cnccn1)Nc1ccnc2c(F)cccc12
Ki [10]: > 7.94 µM (inactive)

Nc1ncnc2c1c(-c1cnc3[nH]ccc3c1)nn2C1CCCC1
Ki [11]: 0.158 µM (active) | Ki [12]: 1.26 µM (active) | Ki [13]: > 3.16 µM (inactive) | Ki [14]: 1.26 µM (active) | Ki [15]: 0.316 µM (active) | Ki [16]: 0.0631 µM (active) | Ki [17]: 0.398 µM (active) | Ki [18]: 0.1 µM (active) | Ki [19]: 0.0631 µM (active) | Ki [20]: 1 µM (active) | Ki [21]: 0.501 µM (active) | Ki [22]: 0.0794 µM (active) | Ki [23]: 0.2 µM (active) | Ki [24]: 0.158 µM (active) | Ki [25]: > 2.51 µM (inactive) | Ki [26]: 1 µM (active) | Ki [27]: 0.0398 µM (active) | Ki [28]: 0.794 µM (active) | Ki [29]: 0.316 µM (active) | Ki [30]: 1 µM (active) | Ki [31]: 0.251 µM (active) | Ki [32]: 0.126 µM (active) | Ki [33]: 2 µM (active) | Ki [34]: 0.158 µM (active) | Ki [35]: 1.26 µM (active) | Ki [36]: 0.0631 µM (active)

Cc1cc(Br)ccc1NC(=O)c1cnc(N2CCN(c3ccccn3)CC2)c2ccccc12
CC50 [37]: 13.2 µM (active) | CC50 [38]: 46.3 µM (active) | CC50 [39]: > 50 µM (active) | CC50 [40]: 86 µM (active) | CC50 [41]: > 40 µM (active) | CC50 [42]: 82 µM (active) | AC50 [43]: 7.54 µM (active) | CC50 [44]: > 100 µM (active) | CC50 [45]: > 50 µM (active) | CC50 [46]: 39.8 µM (active) | AC50 [47]: 8.93 µM (active)
